Here are results for two compounds from patent US9790235B2, “MK2 inhibitors and uses thereof” (Celgene CAR LLC, priority 2014, dated 2017).

For test [1], the target named is T1, MK2 (Homo sapiens (Human), UniProt P49137).
For test [2], the target named is p38α activated, mitogen-activated protein kinase-activated protein kinase 2 (MAPKAP-K2 or MK2) enzyme (Homo sapiens (Human), UniProt P49137). Description: MK2 Omnia continuous-read kinase assay for compound potency. The format is biochemical. To be noted: read-out: MK2 IC50. In outline: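 Continuous fluorescence read (λex360/λem485) with 0.4 nM p38α-activated MK2, 10 μM ATP (apparent KM) and 10 μM S/T3-Sox peptide, monitored over 120 min at room temperature. Background-corrected initial slopes gave % inhibition and IC50 with Hill slope; exponential fits gave kobs, yielding apparent kinact/KI.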
Chain of p38α activated, mitogen-activated protein kinase-activated protein kinase 2 (MAPKAP-K2 or MK2) enzyme (P49137 whole entry): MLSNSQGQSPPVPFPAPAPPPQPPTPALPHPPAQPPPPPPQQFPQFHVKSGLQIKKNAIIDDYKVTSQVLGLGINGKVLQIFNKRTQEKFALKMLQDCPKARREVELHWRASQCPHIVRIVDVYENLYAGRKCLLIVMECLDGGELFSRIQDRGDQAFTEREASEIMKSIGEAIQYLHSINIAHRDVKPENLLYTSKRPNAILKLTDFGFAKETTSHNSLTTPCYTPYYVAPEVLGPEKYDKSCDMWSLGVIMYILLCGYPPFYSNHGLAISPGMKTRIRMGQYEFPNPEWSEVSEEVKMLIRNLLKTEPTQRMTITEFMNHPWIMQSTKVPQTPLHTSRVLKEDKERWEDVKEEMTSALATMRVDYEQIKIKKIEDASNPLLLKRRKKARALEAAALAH

Test [3] has as its target T1, MK2. Description: MK2 cellular assay, total and phospho-Hsp27 (Serine 78) by MSD ELISA (Thp1). The format is cell-based. Conditions: Thp-1 cells, 1 hour compound, 50 ng/mL LPS 45 minutes, p-HSP27 (Ser78)/total HSP27; read-out: pHSP27 signaling EC50. In outline:
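PMA-differentiated (10 ng/mL, 72 h) Thp-1 cells were pretreated with compound (top 3000 nM) for 1 h at 37 °C, then stimulated with 50 ng/mL LPS for 45 min. Lysate phospho-Hsp27 (Ser78) and total Hsp27 were read by MSD electrochemiluminescence ELISA, and the value is expressed as percent phospho/total signal per well.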
In general terms: An ELISA detects its analyte on a solid surface through an enzyme-linked reagent.

Where two headings read alike, the source gives them in different places.
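Wherever Mass Modification is given: covalent binding read from centroid mass shift of compound-treated versus untreated intact MK2, shift divided by compound molecular weight, giving fraction of total protein bound.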

T1 sequence (P49137 whole entry): as above

The term IC50 denotes the concentration at which inhibition is half-maximal. As a reminder, the EC50 is the midpoint of the concentration-response curve. As for `C[C@@H]1CNc2c(sc3ccc4nc(Oc5nc(Cl)nc6c5CN(C)CC6)ccc4c23)C(=O)N1` [I-126, (R)-3-((2-chloro-6-methyl-5,6,7,8-tetrahydropyrido[4,3-d]pyrimidin-4-yl)oxy)-10-methyl-9,10,11,12-tetrahydro-8H-[1,4]diazepino[5′,6′:4,5]thieno[3,2-f]quinolin-8-one], the “Mass Modification” value on MK2 [1] was “E (key: E: mass modification of ≧70%; F: mass modification of 31-69%; G: mass modification ≦30%)”. Further, in test [2], the half-inhibitory concentration (IC50) is less than 100 nM. Also, the concentration giving a half-maximal response (EC50) on MK2 [3] was less than 100 nM.

Turning to `C[C@@H]1CNc2c(sc3ccc4nc(Oc5nc(Cl)ncc5CN5CCC(OCCF)CC5)ccc4c23)C(=O)N1` [I-131, (R)-3-((2-chloro-5-((4-(2-fluoroethoxy)piperidin-1-yl)methyl)pyrimidin-4-yl)oxy)-10-methyl-9,10,11,12-tetrahydro-8H-[1,4]diazepino[5′,6′:4,5]thieno[3,2-f]quinolin-8-one], the “Mass Modification” value at MK2 [1] (percentage of modified protein after 60 minutes at room temperature, 10-fold excess of compound, MALDI (I-1 to I-50), magnetic bead MALDI (I-51 to I-129)) is recorded as “E (mass modification of ≧70%)”. Also, in test [2] ([MK-2]=0.4 nM, [ATP]=10 μM, [ST3-Sox]=10 μM), the half-inhibitory concentration (IC50) was less than 100 nM. Further, on MK2 [3], the half-maximal effective concentration (EC50) is less than 100 nM.
